From patent US8987195B2 (priority 2012, dated 2015)
Like-named read-outs stand apart in the source and are kept apart here.

Columns and labels:
[1] = tested on: HCV genotype 1b replicon; experiment: HCV replicon assay, genotype 1b replicon EC50; assay type: cell-based, Hepatitis C virus; details: Hepatitis C virus, HCV replicon, genotype 1b, read-out: EC50 [gt-1b]
Summary of the method: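 Readout was replicon RNA copy number, by 32P-probe protection or TaqMan normalized to cellular cyclophilin A RNA, or luciferase activity for luciferase:Neo^r fusion lines. Cells were exposed to serially diluted compound for 24-48 hours without G418, then washed and lysed. EC50 derived from four-parameter fit relative to DMSO.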

[2] = biological target: HCV NS3/4A protease genotype 1b (Hepatitis C virus genotype 1b, UniProt P26663); experiment: HCV NS3/4A protease time-resolved fluorescence (TRF) assay, Ki against genotype 1b; assay type: biochemical; details: IC50 [gt-1b], NS3/4A protease TRF assay, genotype 1b enzyme 0.2 nM
Summary of the method: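 Time-resolved fluorescence readout of NS3/4A cleavage of 25 nM europium-labelled peptide over 2.5 h at room temperature, enzyme levels set for signal/background 10–30 (0.2, 0.4, 0.025 nM for 1b, A156T, 3a). Ki by IC50=Ki(1+[S]/KM).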

| Compound | EC50 [1] [nM] | IC50 [2] [nM] | other results |
| --- | --- | --- | --- |
| COc1ccc2nc(C)c3c(c2c1)CC[C@]1(C[C@H]2C(=O)N[C@]4(C(=O)NS(=O)(=O)C5(C)CC5)C[C@H]4/C=C\CCCCC[C@H](Nc4cccc(C)n4)C(=O)N2C1)O3 [Example 463, (2R,6S,12Z,13aS,14aR,16aS)-9′-methoxy-5′-methyl-N-[(1-methylcyclopropyl)sulfonyl]-6-[(6-methylpyridin-2-yl)amino]-5,16-dioxo-1,1′,2′,6,7,8,9,10,11,13a,14,15,16,16a-tetradecahydrospiro[cyclopropa[e]pyrrolo[1,2-a][1,4]diazacyclopentadecine-2,3′-pyrano[2,3-c]quinoline]-14a(5H)-carboxamide] | 2.16 | 0.057 | – |
| Cc1nc2cc(F)ccc2c2c1OC1(CC2F)C[C@H]2C(=O)N[C@]3(C(=O)NS(=O)(=O)C4(C)CC4)C[C@H]3/C=C\CCCCC[C@H](NC(=O)OC(C)(C)C)C(=O)N2C1 (stereo partly drawn) [Example 464, tert-butyl [(6S,12Z,13aS,14aR,16aS)-1′,8′-difluoro-5′-methyl-14a-{[(1-methylcyclopropyl)sulfonyl]carbamoyl}-5,16-dioxo-1,1′,2′,5,6,7,8,9,10,11,13a,14,14a,15,16,16a-hexadecahydrospiro[cyclopropa[e]pyrrolo[1,2-a][1,4]diazacyclopentadecine-2,3′-pyrano[2,3-c]quinolin]-6-yl]carbamate] | 15 | 1.03 | – |
| CCc1nc2ccc(OC)cc2c2c1O[C@]1(CC2)C[C@H]2C(=O)N[C@]3(C(=O)NS(=O)(=O)C4(C)CC4)C[C@H]3/C=C\CCCCC[C@H](NC(=O)c3ccc(C)s3)C(=O)N2C1 [Example 466, (2R,6S,12Z,13aS,14aR,16aS)-5′-ethyl-9′-methoxy-N-[(1-methylcyclopropyl)sulfonyl]-6-{[(5-methylthiophen-2-yl)carbonyl]amino}-5,16-dioxo-1,1′,2′,6,7,8,9,10,11,13a,14,15,16,16a-tetradecahydrospiro[cyclopropa[e]pyrrolo[1,2-a][1,4]diazacyclopentadecine-2,3′-pyrano[2,3-c]quinoline]-14a(5H)-carboxamide] | 1.62 | 0.041 | – |
| CCc1nc2ccc(OC)cc2c2c1O[C@]1(CC2)C[C@H]2C(=O)N[C@]3(C(=O)NS(=O)(=O)C4(C)CC4)C[C@H]3/C=C\CCCCC[C@H](NC(=O)c3ccn(CC)n3)C(=O)N2C1 [Example 467, (2R,6S,12Z,13aS,14aR,16aS)-5′-ethyl-6-{[(1-ethyl-1H-pyrazol-3-yl)carbonyl]amino}-9′-methoxy-N-[(1-methylcyclopropyl)sulfonyl]-5,16-dioxo-1,1′,2′,6,7,8,9,10,11,13a,14,15,16,16a-tetradecahydrospiro[cyclopropa[e]pyrrolo[1,2-a][1,4]diazacyclopentadecine-2,3′-pyrano[2,3-c]quinoline]-14a(5H)-carboxamide] | 4.71 | 0.028 | – |
| CCc1nc2ccc(OC)cc2c2c1O[C@]1(CC2)C[C@H]2C(=O)N[C@]3(C(=O)NS(=O)(=O)C4(C)CC4)C[C@H]3/C=C\CCCCC[C@H](NC(=O)c3ccn(C(F)F)n3)C(=O)N2C1 [Example 468, (2R,6S,12Z,13aS,14aR,16aS)-6-({[1-(difluoromethyl)-1H-pyrazol-3-yl]carbonyl}amino)-5′-ethyl-9′-methoxy-N-[(1-methylcyclopropyl)sulfonyl]-5,16-dioxo-1,1′,2′,6,7,8,9,10,11,13a,14,15,16,16a-tetradecahydrospiro[cyclopropa[e]pyrrolo[1,2-a][1,4]diazacyclopentadecine-2,3′-pyrano[2,3-c]quinoline]-14a(5H)-carboxamide] | 7.15 | 0.031 | – |
| CCc1nc2ccc(OC)cc2c2c1O[C@]1(CC2)C[C@H]2C(=O)N[C@]3(C(=O)NS(=O)(=O)C4(C)CC4)C[C@H]3/C=C\CCCCC[C@H](NC(=O)c3cc[nH]n3)C(=O)N2C1 [Example 469, (2R,6S,12Z,13aS,14aR,16aS)-5′-ethyl-9′-methoxy-N-[(1-methylcyclopropyl)sulfonyl]-5,16-dioxo-6-[(1H-pyrazol-3-ylcarbonyl)amino]-1,1′,2′,6,7,8,9,10,11,13a,14,15,16,16a-tetradecahydrospiro[cyclopropa[e]pyrrolo[1,2-a][1,4]diazacyclopentadecine-2,3′-pyrano[2,3-c]quinoline]-14a(5H)-carboxamide] | 48.8 | 0.016 | – |
| CCc1nc2ccc(OCCN3CCOCC3)cc2c2c1O[C@]1(CC2)C[C@H]2C(=O)N[C@]3(C(=O)NS(=O)(=O)C4(C)CC4)C[C@H]3/C=C\CCCCC[C@H](NC(=O)OC(C)(C)C)C(=O)N2C1 [Example 470, tert-butyl {(2R,6S,12Z,13aS,14aR,16aS)-5′-ethyl-14a-{[(1-methylcyclopropyl)sulfonyl]carbamoyl}-9′-[2-(morpholin-4-yl)ethoxy]-5,16-dioxo-1,1′,2′,5,6,7,8,9,10,11,13a,14,14a,15,16,16a-hexadecahydrospiro[cyclopropa[e]pyrrolo[1,2-a][1,4]diazacyclopentadecine-2,3′-pyrano[2,3-c]quinolin]-6-yl}carbamate] | 5.74 | 0.011 | – |
| CC(C)COC(=O)N[C@H]1CCCCC/C=C\[C@@H]2C[C@@]2(C(=O)NS(=O)(=O)C2(C)CC2)NC(=O)[C@@H]2C[C@]3(CCc4c(c(C(F)(F)F)nc5ccc(OCCN6CCOCC6)cc45)O3)CN2C1=O [Example 471, 2-methylpropyl [(2R,6S,12Z,13aS,14aR,16aS)-14a-{[(1-methylcyclopropyl)sulfonyl]carbamoyl}-9′-[2-(morpholin-4-yl)ethoxy]-5,16-dioxo-5′-(trifluoromethyl)-1,1′,2′,5,6,7,8,9,10,11,13a,14,14a,15,16,16a-hexadecahydrospiro[cyclopropa[e]pyrrolo[1,2-a][1,4]diazacyclopentadecine-2,3′-pyrano[2,3-c]quinolin]-6-yl]carbamate] | – | – | EC50 ([1]; HCl salt): 3.06 nM; IC50 ([2]; HCl salt): 0.021 nM |
| CC(C)(C)COC(=O)N[C@H]1CCCCC/C=C\[C@@H]2C[C@@]2(C(=O)NS(=O)(=O)C2(C)CC2)NC(=O)[C@@H]2C[C@]3(CCc4c(c(C(F)(F)F)nc5ccc(OCCN6CCOCC6)cc45)O3)CN2C1=O [Example 472, 2,2-dimethylpropyl [(2R,6S,12Z,13aS,14aR,16aS)-14a-{[(1-methylcyclopropyl)sulfonyl]carbamoyl}-9′-[2-(morpholin-4-yl)ethoxy]-5,16-dioxo-5′-(trifluoromethyl)-1,1′,2′,5,6,7,8,9,10,11,13a,14,14a,15,16,16a-hexadecahydrospiro[cyclopropa[e]pyrrolo[1,2-a][1,4]diazacyclopentadecine-2,3′-pyrano[2,3-c]quinolin]-6-yl]carbamate] | – | – | EC50 ([1]; HCl salt): 3.43 nM; IC50 ([2]; HCl salt): 0.02 nM |
| COCC1(S(=O)(=O)NC(=O)[C@@]23C[C@H]2/C=C\CCCCC[C@H](NC(=O)OCC(C)C)C(=O)N2C[C@@]4(CCc5c(c(C(F)(F)F)nc6ccc(OC)cc56)O4)C[C@H]2C(=O)N3)CC1 [Example 473, 2-methylpropyl [(2R,6S,12Z,13aS,14aR,16aS)-9′-methoxy-14a-({[1-(methoxymethyl)cyclopropyl]sulfonyl}carbamoyl)-5,16-dioxo-5′-(trifluoromethyl)-1,1′,2′,5,6,7,8,9,10,11,13a,14,14a,15,16,16a-hexadecahydrospiro[cyclopropa[e]pyrrolo[1,2-a][1,4]diazacyclopentadecine-2,3′-pyrano[2,3-c]quinolin]-6-yl]carbamate] | 2.27 | 0.031 | – |
| CC(C)[C@H](C)OC(=O)N[C@H]1CCCCC/C=C\[C@@H]2C[C@@]2(C(=O)NS(=O)(=O)C2(C)CC2)NC(=O)[C@@H]2C[C@]3(CCc4c(c(C(F)(F)F)nc5ccc(OCCN6CCOCC6)cc45)O3)CN2C1=O [Example 474, (2S)-3-methylbutan-2-yl [(2R,6S,12Z,13aS,14aR,16aS)-14a-{[(1-methylcyclopropyl)sulfonyl]carbamoyl}-9′-[2-(morpholin-4-yl)ethoxy]-5,16-dioxo-5′-(trifluoromethyl)-1,1′,2′,5,6,7,8,9,10,11,13a,14,14a,15,16,16a-hexadecahydrospiro[cyclopropa[e]pyrrolo[1,2-a][1,4]diazacyclopentadecine-2,3′-pyrano[2,3-c]quinolin]-6-yl]carbamate] | 1.73 | 0.033 | – |
| CCCOC(=O)N[C@H]1CCCCC/C=C\[C@@H]2C[C@@]2(C(=O)NS(=O)(=O)C2(C)CC2)NC(=O)[C@@H]2C[C@]3(CCc4c(c(C(F)F)nc5ccc(OC)cc45)O3)CN2C1=O [Example 475, propyl [(2R,6S,12Z,13aS,14aR,16aS)-5′-(difluoromethyl)-9′-methoxy-14a-{[(1-methylcyclopropyl)sulfonyl]carbamoyl}-5,16-dioxo-1,1′,2′,5,6,7,8,9,10,11,13a,14,14a,15,16,16a-hexadecahydrospiro[cyclopropa[e]pyrrolo[1,2-a][1,4]diazacyclopentadecine-2,3′-pyrano[2,3-c]quinolin]-6-yl]carbamate] | – | – | EC50 ([1]; K+ salt): 2.39 nM; IC50 ([2]; K+ salt): 0.005 nM |
